For the assay, the target named is T1, human PDE2A1 (Homo sapiens, UniProt O00408).
T1 construct: GST; purchased BPS Bioscience (San Diego, Calif.) 60020; host or cells: insect cells
Put plainly: IMAP FP PDE assay, human PDE2A1. The format is biochemical. The method in brief:
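FP (IMAP) read after 60 min room-temperature reaction of insect-cell GST-human PDE2A1 with 50 nM FAM-cAMP plus 1000 nM cGMP (pH 7.2 Tris, Mg2+, DTT). Compounds titrated 3-fold over ten points. Apparent Ki derived assuming KM of 10,000 nM; enzyme at 20% substrate turnover.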

Setting [1] is: Lab A, read-out: Human PDE2 Ki (nM) Lab A.
Where [2] appears, read: Lab B, read-out: Human PDE2 Ki (nM) Lab B.

Data on 29 molecules can be found in patent publication US10160762B2, “6-alkyl dihydropyrazolopyrimidinone compounds as PDE2 inhibitors” (Merck Sharp & Dohme Corp., priority 2015, dated 2018).

Like-named read-outs stand apart in the source and are kept apart here.

T1 sequence (O00408 1-920 isoform O00408-2): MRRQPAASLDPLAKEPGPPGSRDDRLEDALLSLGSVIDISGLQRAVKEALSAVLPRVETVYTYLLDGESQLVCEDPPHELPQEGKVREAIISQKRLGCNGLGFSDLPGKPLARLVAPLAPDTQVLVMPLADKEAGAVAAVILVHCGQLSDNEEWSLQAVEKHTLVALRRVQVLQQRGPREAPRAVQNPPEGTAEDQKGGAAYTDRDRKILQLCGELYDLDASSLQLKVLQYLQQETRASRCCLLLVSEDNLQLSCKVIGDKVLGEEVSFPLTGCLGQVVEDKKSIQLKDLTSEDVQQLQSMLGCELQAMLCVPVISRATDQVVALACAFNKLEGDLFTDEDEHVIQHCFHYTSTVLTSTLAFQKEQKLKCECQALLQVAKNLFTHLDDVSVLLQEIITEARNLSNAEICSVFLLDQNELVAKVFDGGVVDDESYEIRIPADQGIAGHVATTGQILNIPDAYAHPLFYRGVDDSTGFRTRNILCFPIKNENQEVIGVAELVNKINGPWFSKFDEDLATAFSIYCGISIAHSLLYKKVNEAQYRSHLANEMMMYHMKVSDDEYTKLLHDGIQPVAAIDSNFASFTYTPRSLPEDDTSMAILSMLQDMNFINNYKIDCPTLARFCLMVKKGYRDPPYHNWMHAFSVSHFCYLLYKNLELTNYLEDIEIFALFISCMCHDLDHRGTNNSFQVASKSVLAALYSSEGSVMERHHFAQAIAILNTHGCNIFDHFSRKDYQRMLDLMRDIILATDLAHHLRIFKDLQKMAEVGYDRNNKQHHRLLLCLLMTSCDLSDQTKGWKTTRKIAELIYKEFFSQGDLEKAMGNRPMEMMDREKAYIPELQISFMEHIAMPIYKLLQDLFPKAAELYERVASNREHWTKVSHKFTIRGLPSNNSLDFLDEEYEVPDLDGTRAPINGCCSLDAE

In general, Ki refers to the equilibrium dissociation constant of an inhibitor or competing ligand from its target. As to `Cc1nn(C(C)c2ccc(C(F)(F)F)cc2)c2nc(C3CC3)[nH]c(=O)c12` (stereo not drawn) [Example 42, 6-Cyclopropyl-3-methyl-1-{1-[4-(trifluoromethyl)phenyl]ethyl}-1,5-dihydro-4H-pyrazolo[3,4-d]pyrimidin-4-one], under setting [1], the Ki was 40 nM.
For the molecule `CCOCCc1nc2c(c(C)nn2C(C)c2ccc(C(F)(F)F)cc2)c(=O)[nH]1` (stereo not drawn) [Example 35, 6-(2-Ethoxyethyl)-3-methyl-1-(1-(4-(trifluoromethyl)phenyl)ethyl)-1H-pyrazolo[3,4-d]pyrimidin-4(5H)-one], the Ki under setting [1] came out at 105 nM.
On to `Cc1nc2c(c(CO)nn2C(c2ccc(OC(F)(F)F)c(F)c2)C(C)C)c(=O)[nH]1` (single isomer, unassigned) [Example 127, (S)- or (R)-1-(1-(3-Fluoro-4-(trifluoromethoxy)phenyl)-2-methylpropyl)-3-(hydroxymethyl)-6-methyl-1H-pyrazolo[3,4-d]pyrimidin-4(5H)-one], for which, under setting [2], the inhibition constant Ki was 0.98 nM.
Consider `COc1ccc(C(=O)c2nc3c(c(C(F)F)nn3C(C)c3ccc(C(F)(F)F)cc3)c(=O)[nH]2)cc1OC` (stereo not drawn) [Example 198, 3-(Difluoromethyl)-6-(3,4-dimethoxybenzoyl)-1-(1-(4-(trifluoromethyl)phenyl)ethyl)-1H-pyrazolo[3,4-d]pyrimidin-4(5H)-one], for which the Ki under setting [2] is 21 nM.
Consider `CCCc1nc2c(c(C)nn2C(C)c2ccc(C(F)(F)F)cc2)c(=O)[nH]1` (stereo not drawn) [Example 41, 3-Methyl-6-propyl-1-{1-[4-(trifluoromethyl)phenyl]ethyl}-1,5-dihydro-4H-pyrazolo[3,4-d]pyrimidin-4-one], for which the inhibitory constant (Ki) under setting [1] was 35 nM.
Take `COc1ccc(Cc2nc3c(c(CF)nn3C(C)c3ccc(C(F)(F)F)cc3)c(=O)[nH]2)cc1OC` (single isomer, unassigned) [Example 223, (S)- or (R)-6-(3,4-Dimethoxybenzyl)-3-(fluoromethyl)-1-(1-(4-(trifluoromethyl)phenyl)ethyl)-1,5-dihydro-4H-pyrazolo[3,4-d]pyrimidin-4-one]: the inhibitory constant (Ki) under setting [1] came out at 12 nM.
With `Cc1nc2c(c(C(F)F)nn2C(C)c2ccc(OC(F)F)cc2)c(=O)[nH]1` (single isomer, unassigned) [Example 182, (S)- or (R)-1-(1-(4-(Difluoromethoxy)phenyl)ethyl)-3-(difluoromethyl)-6-methyl-1H-pyrazolo[3,4-d]pyrimidin-4(5H)-one], the Ki under setting [2] worked out at 0.84 nM.
Same read-out and setting: then `COCc1nc2c(c(CF)nn2C(C)c2ccc(C(F)(F)F)cc2)c(=O)[nH]1` (stereo not drawn) [Example 205, 3-(Fluoromethyl)-6-(methoxymethyl)-1-{1-[4-(trifluoromethyl)phenyl]ethyl}-1,5-dihydro-4H-pyrazolo[3,4-d]pyrimidin-4-one], with 3.4 nM.
`CCC(c1ccc(C(F)(F)F)cc1)n1nc(CO)c2c(=O)[nH]c(C)nc21` (single isomer, unassigned) [Example 132, (R)- or (S)-3-(Hydroxymethyl)-6-methyl-1-(1-(4-(trifluoro-methyl)phenyl)propyl)-1H-pyrazolo[3,4-d]pyrimidin-4(5H)-one]: under setting [2], the Ki was determined as 1.1 nM.
Consider `Cc1nc2c(c(CO)nn2Cc2ccc(C(F)(F)F)cc2)c(=O)[nH]1` [Example 8, 3-(Hydroxymethyl)-6-methyl-1-[4-(trifluoromethyl)benzyl]-1,5-dihydro-4H-pyrazolo[3,4-d]pyrimidin-4-one], for which the Ki runs as follows: under setting [1], 100 nM; under setting [2], 105 nM.
For `Cc1nc2c(c(CO)nn2C(c2ccc(OC(F)(F)F)cc2)C2CC2)c(=O)[nH]1` (single isomer, unassigned) [Example 95, (S)- or (R)-1-(Cyclopropyl(4-(trifluoromethoxy)phenyl)methyl)-3-(hydroxymethyl)-6-methyl-1H-pyrazolo[3,4-d]pyrimidin-4(5H)-one], the Ki under setting [2] was determined as 2 nM.
For `Cc1nn(C(C)c2ccc(C(F)(F)F)cc2)c2nc(C3CCC3)[nH]c(=O)c12` (stereo not drawn) [Example 39, 6-Cyclobutyl-3-methyl-1-{1-[4-(trifluoromethyl)phenyl]ethyl}-1,5-dihydro-4H-pyrazolo[3,4-d]pyrimidin-4-one], the Ki under setting [1] was found to be 84 nM.
In the case of `Cc1nc2c(c(CF)nn2C(c2ccc(C(F)(F)F)cc2)C2CC2)c(=O)[nH]1` (stereo not drawn) [Example 231, 1-(cyclopropyl(4-(trifluoromethyl)phenyl)methyl)-3-(fluoromethyl)-6-methyl-1H-pyrazolo[3,4-d]pyrimidin-4(5H)-one], the inhibition constant Ki amounted to 0.39 nM under setting [1] and 0.97 nM under setting [2].
For the molecule `COc1cccc(Cc2nc3c(c(C)nn3C(C)c3ccc(C(F)(F)F)cc3)c(=O)[nH]2)c1` (stereo not drawn) [Example 45, 6-(3-Methoxybenzyl)-3-methyl-1-{1-[4-(trifluoromethyl)phenyl]ethyl}-1,5-dihydro-4H-pyrazolo[3,4-d]pyrimidin-4-one], the Ki under setting [1] came out at 22 nM.
With `Cc1nc2c(c(CO)nn2C(c2ccc(OC(F)(F)F)c(F)c2)C(C)C)c(=O)[nH]1` (single isomer, unassigned) [Example 126, (R)- or (S)-1-(1-(3-Fluoro-4-(trifluoromethoxy)phenyl)-2-methylpropyl)-3-(hydroxyl-methyl)-6-methyl-1H-pyrazolo-[3,4-d]pyrimidin-4(5H)-one], the Ki under setting [2] was determined as 5.7 nM.
Regarding `Cc1nc2c(c(CF)nn2C(c2ccc(C(F)(F)F)cc2)C(C)C)c(=O)[nH]1` (single isomer, unassigned) [Example 213, (S)- or (R)-3-(Fluoromethyl)-6-methyl-1-(2-methyl-1-(4-(trifluoromethyl)phenyl)propyl)-1H-pyrazolo[3,4-d]pyrimidin-4(5H)-one], the Ki under setting [2] was determined as 0.19 nM.
With `COc1ccc(Cc2nc3c(c(C(F)F)nn3C(C)c3ccc(C(F)(F)F)cc3)c(=O)[nH]2)cc1OC` (single isomer, unassigned) [Example 197], the inhibitory constant (Ki) under setting [2] worked out at 0.23 nM.
On the same count and under the same terms, then `Cc1nc2c(c(CO)nn2[C@@H](C)c2ccc(C(C)(C)C)cc2)c(=O)[nH]1` [Example 157, (S)-1-(1-(4-tert-Butylphenyl)ethyl)-3-(hydroxymethyl)-6-methyl-1H-pyrazolo[3,4-d]pyrimidin-4(5H)-one], with 1.1 nM.
`Cc1nn(C(C)c2ccc(C(F)(F)F)cc2)c2nc(Cc3cccc(O)c3)[nH]c(=O)c12` (stereo not drawn) [Example 30, 6-(3-Hydroxybenzyl)-3-methyl-1-(1-(4-(trifluoromethyl)phenyl)ethyl)-1H-pyrazolo[3,4-d]pyrimidin-4(5H)-one]: the inhibition constant Ki reads like this: under setting [1], 4.6 nM; under setting [2], 12 nM.
Consider `Cc1nc2c(c(CF)nn2C(C)c2ccc(OC(F)(F)F)c(F)c2)c(=O)[nH]1` (single isomer, unassigned) [Example 216, (R)- or (S)-1-(1-(3-Fluoro-4-(trifluoromethoxy)phenyl)ethyl)-3-(fluoromethyl)-6-methyl-1H-pyrazolo[3,4-d]pyrimidin-4(5H)-one], for which, under setting [2], the Ki was determined as 36 nM.
With `Cc1nc2c(c(CO)nn2C(C)c2ccc(C(F)(F)F)c(F)c2)c(=O)[nH]1` (stereo not drawn) [Example 1, 1-(1-(3-Fluoro-4-(trifluoromethyl)phenyl)ethyl)-3-(hydroxymethyl)-6-methyl-1H-pyrazolo[3,4-d]pyrimidin-4(5H)-one], the Ki reads like this: under setting [1], 1.8 nM; under setting [2], 5.3 nM.
With `Cc1nc2c(c(C(F)F)nn2C(C)c2ccc(C(F)(F)F)cc2)c(=O)[nH]1` (stereo not drawn) [Example 166, 3-(Difluoromethyl)-6-methyl-1-{1-[4-(trifluoromethyl)phenyl]ethyl}-1,5-dihydro-4H-pyrazolo[3,4-d]pyrimidin-4-one], the Ki by setting is: under setting [1], roughly 5.9 nM; under setting [2], 9.5 nM.
Regarding `Cc1nc2c(c(C(F)F)nn2C(c2ccc(OC(F)(F)F)c(F)c2)C2CC2)c(=O)[nH]1` (stereo not drawn) [Example 193, 1-(Cyclopropyl(3-fluoro-4-(trifluoromethoxy)phenyl)methyl)-3-(difluoromethyl)-6-methyl-1H-pyrazolo[3,4-d]pyrimidin-4(5H)-one], the Ki under setting [2] is 1.8 nM.
Take `Cc1nc2c(c(CCl)nn2C(c2ccc(C(F)(F)F)cc2)C2CC2)c(=O)[nH]1` (stereo not drawn) [Example 232, 3-(chloromethyl)-1-(cyclopropyl(4-(trifluoromethyl)phenyl)methyl)-6-methyl-1H-pyrazolo[3,4-d]pyrimidin-4(5H)-one]: the inhibition constant (Ki) under setting [1] was found to be 0.27 nM and the Ki under setting [2] amounted to 0.7 nM.
`CCC(CCCc1ccccc1)n1nc(C)c2c(=O)[nH]c(C)nc21` (stereo not drawn) [Example 338, 1-(1-ethyl-4-phenylbutyl)-3,6-dimethyl-1,5-dihydro-4H-pyrazolo[3,4-d]pyrimidin-4-one]: the Ki under setting [1] was determined as 73 nM.
On to `Cc1nc2c(c(CO)nn2C(C)c2ccc(C3CC3)cc2)c(=O)[nH]1` (stereo not drawn) [Example 3, 1-(1-(4-Cyclopropylphenl)ethyl)-3-(hydroxymethyl)-6-methyl-1H-pyrazolo[3,4-d]pyrimidin-4(5H)-one], for which the Ki under setting [2] is 3.7 nM.
Still for that read-out and setting: then `Cc1nc2c(c(CF)nn2C(C)c2ccc(C(C)(C)C)cc2)c(=O)[nH]1` (single isomer, unassigned) [Example 214, (R)- or (S)-1-(1-(4-tert-Butylphenyl)ethyl)-3-(fluoromethyl)-6-methyl-1H-pyrazolo[3,4-d]pyrimidin-4(5H)-one], with 307 nM.
Regarding `Cc1nc(-c2nc3c(c(C)nn3C(C)c3ccc(C(F)(F)F)cc3)c(=O)[nH]2)c(C)o1` (stereo not drawn) [Example 54, 6-(2,5-Dimethyl-1,3-oxazol-4-yl)-3-methyl-1-{1-[4-(trifluoromethyl)phenyl]ethyl}-1,5-dihydro-4H-pyrazolo[3,4-d]pyrimidin-4-one], under setting [1], the Ki came to 12 nM.
Regarding `Cc1nc2c(c(CO)nn2C(C)c2ccc(C(F)(F)F)cc2)c(=O)[nH]1` (single isomer, unassigned) [Example 26, (R)- or (S)-3-(Hydroxymethyl)-6-methyl-1-{1-[4-(trifluoromethyl)phenyl]ethyl}-1,5-dihydro-4H-pyrazolo[3,4-d]pyrimidin-4-one], the Ki reads like this: under setting [1], 130 nM; under setting [2], 236 nM.
